Laboratory results: the supplement of paper PMC12076712

How the values were obtained:
Experiment in all cases: pIC50, kinobeads binding competition
BUB1 = BUB1 (UniProt O43683)
How it was run: (§1)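 Fold changes relative to vehicle, from biological duplicates, were fitted with logistic dose-response models in the R drc package to give pIC50. These fold changes came from TMT10 LC-MS/MS quantification of digested Kinobeads-bound proteins. Compound was applied at nine concentrations (top 30 μM) either to live Jurkat cells in 1:4 steps for 60 min at 37 °C before lysis, or to Jurkat lysate or a 1:1:1:1 HEK293/K-562/HepG2/placenta lysate mix in 1:5 steps for 60 min at 4 °C.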

UniProt P09619 = conditions: cell material: Lysate mix
Sequence of UniProt P09619 (P09619 whole entry): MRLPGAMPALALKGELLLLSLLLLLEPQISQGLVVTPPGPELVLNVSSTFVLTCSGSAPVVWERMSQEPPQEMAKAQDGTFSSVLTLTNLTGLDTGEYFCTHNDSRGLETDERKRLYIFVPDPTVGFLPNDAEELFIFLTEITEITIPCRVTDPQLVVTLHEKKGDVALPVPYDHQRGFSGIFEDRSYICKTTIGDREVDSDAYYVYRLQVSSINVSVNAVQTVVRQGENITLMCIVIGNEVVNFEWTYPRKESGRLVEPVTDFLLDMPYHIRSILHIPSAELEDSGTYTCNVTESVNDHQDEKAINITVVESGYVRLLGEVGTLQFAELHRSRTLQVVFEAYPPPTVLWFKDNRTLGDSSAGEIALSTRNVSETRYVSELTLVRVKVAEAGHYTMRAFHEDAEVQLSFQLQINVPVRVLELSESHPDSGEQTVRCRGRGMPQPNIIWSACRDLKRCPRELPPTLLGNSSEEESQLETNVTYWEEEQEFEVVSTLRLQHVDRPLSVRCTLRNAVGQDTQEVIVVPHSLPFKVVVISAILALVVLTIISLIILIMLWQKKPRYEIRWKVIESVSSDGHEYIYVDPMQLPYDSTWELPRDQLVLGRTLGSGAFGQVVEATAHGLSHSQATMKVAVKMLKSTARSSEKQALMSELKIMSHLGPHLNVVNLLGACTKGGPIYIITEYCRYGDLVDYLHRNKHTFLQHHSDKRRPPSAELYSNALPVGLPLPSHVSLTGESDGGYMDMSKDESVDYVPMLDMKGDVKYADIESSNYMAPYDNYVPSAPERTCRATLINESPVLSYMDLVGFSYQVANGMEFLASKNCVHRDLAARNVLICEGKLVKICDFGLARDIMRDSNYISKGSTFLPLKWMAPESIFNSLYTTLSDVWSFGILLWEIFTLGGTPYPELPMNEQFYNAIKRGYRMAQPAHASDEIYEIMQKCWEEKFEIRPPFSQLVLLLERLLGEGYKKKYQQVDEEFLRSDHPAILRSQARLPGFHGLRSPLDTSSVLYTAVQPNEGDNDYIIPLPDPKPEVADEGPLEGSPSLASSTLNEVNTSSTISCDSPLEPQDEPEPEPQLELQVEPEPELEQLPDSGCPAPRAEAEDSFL
How it was run: as §1

BMX = target: T1, BMX (UniProt P51813); conditions: cell material: Lysate mix
T1 sequence (whole entry): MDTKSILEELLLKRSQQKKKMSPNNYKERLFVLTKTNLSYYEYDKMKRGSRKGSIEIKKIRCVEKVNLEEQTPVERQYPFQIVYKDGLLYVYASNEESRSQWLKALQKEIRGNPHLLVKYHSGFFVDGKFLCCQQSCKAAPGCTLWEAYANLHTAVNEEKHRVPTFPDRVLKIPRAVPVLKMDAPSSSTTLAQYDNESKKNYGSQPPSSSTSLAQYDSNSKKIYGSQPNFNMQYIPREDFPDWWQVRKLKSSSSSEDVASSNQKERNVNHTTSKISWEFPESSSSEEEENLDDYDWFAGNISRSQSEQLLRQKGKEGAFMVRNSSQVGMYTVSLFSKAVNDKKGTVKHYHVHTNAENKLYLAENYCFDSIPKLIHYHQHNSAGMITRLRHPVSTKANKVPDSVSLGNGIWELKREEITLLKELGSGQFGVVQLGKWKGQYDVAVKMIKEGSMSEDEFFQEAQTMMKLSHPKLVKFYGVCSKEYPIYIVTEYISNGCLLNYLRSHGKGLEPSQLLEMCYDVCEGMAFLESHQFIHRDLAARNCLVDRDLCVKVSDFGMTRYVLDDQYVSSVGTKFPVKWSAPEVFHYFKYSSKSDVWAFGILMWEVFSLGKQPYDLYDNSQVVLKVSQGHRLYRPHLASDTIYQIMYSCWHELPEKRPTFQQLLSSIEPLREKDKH
How it was run: as §1

TAOK2 = target: T2, TAOK2 (UniProt Q9UL54)
T2 sequence (whole entry): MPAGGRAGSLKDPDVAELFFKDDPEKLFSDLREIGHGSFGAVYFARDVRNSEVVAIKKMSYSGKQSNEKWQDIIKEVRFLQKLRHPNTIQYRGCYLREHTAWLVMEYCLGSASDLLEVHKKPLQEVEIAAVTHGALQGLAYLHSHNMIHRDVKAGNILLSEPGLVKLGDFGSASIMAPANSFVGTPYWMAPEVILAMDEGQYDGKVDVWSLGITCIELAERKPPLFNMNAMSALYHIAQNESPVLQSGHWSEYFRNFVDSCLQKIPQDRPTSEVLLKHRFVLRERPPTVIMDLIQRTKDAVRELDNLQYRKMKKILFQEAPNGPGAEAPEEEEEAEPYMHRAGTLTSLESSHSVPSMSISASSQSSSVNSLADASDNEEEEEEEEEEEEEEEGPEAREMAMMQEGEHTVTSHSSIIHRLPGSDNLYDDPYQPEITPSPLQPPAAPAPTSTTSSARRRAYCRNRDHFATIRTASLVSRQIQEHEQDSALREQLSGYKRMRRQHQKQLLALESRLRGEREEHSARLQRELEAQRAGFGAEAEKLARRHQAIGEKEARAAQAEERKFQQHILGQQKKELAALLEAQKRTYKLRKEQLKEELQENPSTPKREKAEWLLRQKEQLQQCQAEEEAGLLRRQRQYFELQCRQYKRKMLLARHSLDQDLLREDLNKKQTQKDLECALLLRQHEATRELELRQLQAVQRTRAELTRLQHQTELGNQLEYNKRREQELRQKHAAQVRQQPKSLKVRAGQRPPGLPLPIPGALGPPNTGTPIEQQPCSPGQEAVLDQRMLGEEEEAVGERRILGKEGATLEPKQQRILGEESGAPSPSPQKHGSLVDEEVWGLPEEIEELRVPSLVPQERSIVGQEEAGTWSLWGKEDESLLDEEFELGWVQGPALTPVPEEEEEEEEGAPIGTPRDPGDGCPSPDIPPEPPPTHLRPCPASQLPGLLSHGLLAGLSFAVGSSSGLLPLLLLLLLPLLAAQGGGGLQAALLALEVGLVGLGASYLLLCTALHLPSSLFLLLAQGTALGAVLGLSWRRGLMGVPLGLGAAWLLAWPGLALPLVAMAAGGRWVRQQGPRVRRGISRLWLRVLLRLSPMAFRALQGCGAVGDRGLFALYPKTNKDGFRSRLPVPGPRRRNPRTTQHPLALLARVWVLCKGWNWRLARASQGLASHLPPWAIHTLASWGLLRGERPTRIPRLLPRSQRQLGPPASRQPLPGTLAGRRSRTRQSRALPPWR
How it was run: as §1

UniProt Q8TBX8 = target: T3, UniProt Q8TBX8
T3 sequence (whole entry): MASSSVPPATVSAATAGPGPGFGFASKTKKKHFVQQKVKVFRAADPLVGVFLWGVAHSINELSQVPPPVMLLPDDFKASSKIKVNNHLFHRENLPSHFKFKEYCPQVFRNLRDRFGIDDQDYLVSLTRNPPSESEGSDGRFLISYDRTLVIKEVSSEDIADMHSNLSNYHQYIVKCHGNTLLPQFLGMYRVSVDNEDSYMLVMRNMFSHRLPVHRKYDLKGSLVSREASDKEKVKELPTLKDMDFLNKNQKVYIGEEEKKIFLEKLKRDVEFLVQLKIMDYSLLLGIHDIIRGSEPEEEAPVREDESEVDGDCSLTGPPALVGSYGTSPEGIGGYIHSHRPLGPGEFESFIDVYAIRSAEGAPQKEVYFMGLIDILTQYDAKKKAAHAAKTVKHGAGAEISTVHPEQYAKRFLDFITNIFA
How it was run: as §1

UniProt Q13131 = target: UniProt Q13131
Sequence of UniProt Q13131 (Q13131 whole entry, looked up): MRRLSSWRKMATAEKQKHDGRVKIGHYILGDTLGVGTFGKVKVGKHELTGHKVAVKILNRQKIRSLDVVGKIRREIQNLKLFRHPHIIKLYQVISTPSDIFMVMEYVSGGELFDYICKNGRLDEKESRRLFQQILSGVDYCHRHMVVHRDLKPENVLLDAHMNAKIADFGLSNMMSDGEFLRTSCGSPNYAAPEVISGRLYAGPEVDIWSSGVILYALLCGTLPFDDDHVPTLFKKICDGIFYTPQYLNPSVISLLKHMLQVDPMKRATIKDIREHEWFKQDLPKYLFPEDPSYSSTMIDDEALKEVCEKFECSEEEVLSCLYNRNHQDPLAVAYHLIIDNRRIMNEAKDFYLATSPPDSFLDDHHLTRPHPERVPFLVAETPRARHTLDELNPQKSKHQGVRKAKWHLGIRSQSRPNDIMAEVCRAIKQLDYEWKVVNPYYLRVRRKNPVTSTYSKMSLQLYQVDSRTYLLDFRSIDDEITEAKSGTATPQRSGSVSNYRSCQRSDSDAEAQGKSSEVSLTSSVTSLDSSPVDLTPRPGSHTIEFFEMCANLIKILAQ
How it was run: as §1

MARK1 = MARK1 (UniProt Q9P0L2); conditions: cell material: Lysate mix
Sequence of MARK1 (Q9P0L2 whole entry, looked up): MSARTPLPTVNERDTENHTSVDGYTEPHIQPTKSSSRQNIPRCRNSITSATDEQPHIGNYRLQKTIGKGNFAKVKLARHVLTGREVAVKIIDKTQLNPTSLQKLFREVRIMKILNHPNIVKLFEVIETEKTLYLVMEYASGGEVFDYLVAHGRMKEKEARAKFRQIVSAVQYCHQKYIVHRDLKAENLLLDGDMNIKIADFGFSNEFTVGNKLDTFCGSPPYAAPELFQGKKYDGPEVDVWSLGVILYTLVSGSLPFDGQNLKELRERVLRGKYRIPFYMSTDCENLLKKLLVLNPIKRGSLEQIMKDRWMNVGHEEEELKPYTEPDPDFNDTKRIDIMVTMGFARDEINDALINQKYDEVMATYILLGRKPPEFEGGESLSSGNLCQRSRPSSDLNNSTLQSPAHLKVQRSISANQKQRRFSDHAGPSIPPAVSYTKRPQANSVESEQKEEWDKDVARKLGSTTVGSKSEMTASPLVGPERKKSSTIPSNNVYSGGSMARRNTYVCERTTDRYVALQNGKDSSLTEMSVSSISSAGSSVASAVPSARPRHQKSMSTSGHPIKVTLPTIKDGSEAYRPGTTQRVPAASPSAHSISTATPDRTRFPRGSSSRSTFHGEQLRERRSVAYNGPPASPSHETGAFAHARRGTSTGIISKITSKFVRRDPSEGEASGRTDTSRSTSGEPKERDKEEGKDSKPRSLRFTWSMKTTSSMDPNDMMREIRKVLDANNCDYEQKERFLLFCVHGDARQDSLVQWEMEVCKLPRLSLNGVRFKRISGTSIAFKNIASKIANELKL
How it was run: as §1

UniProt Q5VT25 = target: UniProt Q5VT25
How it was run: as §1

SYK = SYK (UniProt P43405)
How it was run: as §1

UniProt P50613 = target: UniProt P50613
Sequence of UniProt P50613 (P50613 whole entry): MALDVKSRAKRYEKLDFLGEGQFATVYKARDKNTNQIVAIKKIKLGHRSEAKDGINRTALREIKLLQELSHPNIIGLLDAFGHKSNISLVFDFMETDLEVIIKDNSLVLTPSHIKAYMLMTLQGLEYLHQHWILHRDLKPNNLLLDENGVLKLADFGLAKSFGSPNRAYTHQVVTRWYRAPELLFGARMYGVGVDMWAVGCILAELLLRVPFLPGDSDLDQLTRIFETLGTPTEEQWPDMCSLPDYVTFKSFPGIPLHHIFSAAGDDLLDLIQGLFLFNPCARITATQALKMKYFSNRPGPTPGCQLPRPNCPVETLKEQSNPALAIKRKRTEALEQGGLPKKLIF
How it was run: as §1

UniProt P68400 = target: UniProt P68400
Sequence of UniProt P68400 (P68400 whole entry, looked up): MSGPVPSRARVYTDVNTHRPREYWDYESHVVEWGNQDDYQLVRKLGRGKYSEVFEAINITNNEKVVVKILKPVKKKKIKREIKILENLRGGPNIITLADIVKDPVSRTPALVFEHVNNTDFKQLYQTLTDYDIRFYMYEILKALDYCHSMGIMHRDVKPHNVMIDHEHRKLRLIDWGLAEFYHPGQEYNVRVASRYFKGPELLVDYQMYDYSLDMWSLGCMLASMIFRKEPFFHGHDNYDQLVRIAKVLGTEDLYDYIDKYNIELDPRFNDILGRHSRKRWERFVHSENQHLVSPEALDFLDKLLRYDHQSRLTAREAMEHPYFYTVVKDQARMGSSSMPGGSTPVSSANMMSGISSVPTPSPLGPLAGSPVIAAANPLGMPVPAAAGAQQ
How it was run: as §1

Sequence of BUB1 (O43683 whole entry, looked up): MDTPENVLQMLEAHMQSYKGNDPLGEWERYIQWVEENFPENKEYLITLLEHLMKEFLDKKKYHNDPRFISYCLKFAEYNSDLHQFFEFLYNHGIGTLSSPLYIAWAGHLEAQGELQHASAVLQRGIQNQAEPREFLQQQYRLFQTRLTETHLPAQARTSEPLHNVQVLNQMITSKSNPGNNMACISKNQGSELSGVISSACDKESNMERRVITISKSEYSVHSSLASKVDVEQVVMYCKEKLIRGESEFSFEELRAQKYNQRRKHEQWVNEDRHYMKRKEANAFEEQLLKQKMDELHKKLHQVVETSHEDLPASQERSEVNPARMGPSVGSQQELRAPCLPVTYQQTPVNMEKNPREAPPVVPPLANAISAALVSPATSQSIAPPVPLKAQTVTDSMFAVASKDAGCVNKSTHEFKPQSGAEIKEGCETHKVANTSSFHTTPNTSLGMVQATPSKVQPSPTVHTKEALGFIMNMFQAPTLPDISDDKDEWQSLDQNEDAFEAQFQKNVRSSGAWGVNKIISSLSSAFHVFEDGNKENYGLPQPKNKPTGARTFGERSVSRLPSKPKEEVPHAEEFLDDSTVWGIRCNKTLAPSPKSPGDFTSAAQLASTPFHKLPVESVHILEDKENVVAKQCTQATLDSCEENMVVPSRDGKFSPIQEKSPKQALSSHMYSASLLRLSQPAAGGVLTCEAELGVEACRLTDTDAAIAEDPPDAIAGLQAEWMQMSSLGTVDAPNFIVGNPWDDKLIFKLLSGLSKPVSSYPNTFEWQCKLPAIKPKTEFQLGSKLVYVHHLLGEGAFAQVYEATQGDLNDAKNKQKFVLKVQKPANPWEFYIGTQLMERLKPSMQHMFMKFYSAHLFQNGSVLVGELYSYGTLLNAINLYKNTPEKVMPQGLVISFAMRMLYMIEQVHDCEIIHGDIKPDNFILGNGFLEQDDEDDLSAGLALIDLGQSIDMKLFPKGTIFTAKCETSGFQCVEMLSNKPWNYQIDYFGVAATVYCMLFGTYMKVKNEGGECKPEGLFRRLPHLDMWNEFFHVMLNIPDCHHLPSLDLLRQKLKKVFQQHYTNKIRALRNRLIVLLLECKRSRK

Structure (SMILES) | pIC50 (BUB1; cell material: Lysate mix) | pIC50 (UniProt P09619) | pIC50 (BMX) | pIC50 (TAOK2; cell material: Lysate mix) | pIC50 (UniProt Q8TBX8; cell material: Lysate mix) | pIC50 (UniProt Q13131; cell material: Lysate mix) | pIC50 (MARK1) | pIC50 (UniProt Q5VT25; cell material: Lysate mix) | pIC50 (SYK; cell material: Lysate mix) | pIC50 (UniProt P50613; cell material: Lysate mix) | pIC50 (UniProt P68400; cell material: Lysate mix) | pIC50 (BUB1; cell material: Jurkat cells) | pIC50 (BUB1; cell material: Jurkat lysate) | pIC50 (TAOK2; cell material: Jurkat lysate) | pIC50 (UniProt Q8TBX8; cell material: Jurkat cells) | pIC50 (UniProt Q8TBX8; cell material: Jurkat lysate) | pIC50 (UniProt Q13131; cell material: Jurkat cells) | pIC50 (UniProt Q13131; cell material: Jurkat lysate) | pIC50 (UniProt Q5VT25; cell material: Jurkat cells) | pIC50 (UniProt Q5VT25; cell material: Jurkat lysate) | pIC50 (SYK; cell material: Jurkat lysate) | pIC50 (UniProt P50613; cell material: Jurkat cells) | pIC50 (UniProt P50613; cell material: Jurkat lysate) | pIC50 (UniProt P68400; cell material: Jurkat cells) | pIC50 (UniProt P68400; cell material: Jurkat lysate) | pIC50 (TAOK2; cell material: Jurkat cells) | pIC50 (SYK; cell material: Jurkat cells)
CCNC(=O)c1cc(Nc2cc(C)[nH]n2)nc(N2CCN(Cc3ccc(S(=O)(=O)F)cc3)CC2)n1 | < 4.52 | < 4.52 | < 4.52 | < 4.52 | < 4.52 | 6.97 | < 4.52 | < 4.52 | 5.57 | 5 | 5.15 | – | – | – | – | – | – | – | – | – | – | – | – | – | – | – | –
CCNC(=O)c1cc(Nc2cc(C3CC3)[nH]n2)nc(N2CCN(Cc3ccc(S(=O)(=O)F)cc3)CC2)n1 | < 4.52 | < 4.52 | < 4.52 | < 4.52 | < 4.52 | 7.03 | < 4.52 | < 4.52 | 6.22 | 6.33 | 5.39 | – | – | – | – | – | – | – | – | – | – | – | – | – | – | – | –
Cc1cc(Nc2cc(C(=O)NCCNC(=O)OC3CC/C=C/CCC3)nc(N3CCN(Cc4ccc(S(=O)(=O)F)cc4)CC3)n2)n[nH]1 (stereo not drawn) | < 4.52 | < 4.52 | < 4.52 | 5.15 | < 4.52 | 5.24 | < 4.52 | < 4.52 | < 4.52 | < 4.52 | < 4.52 | – | – | – | – | – | – | – | – | – | – | – | – | – | – | – | –
C#CCNC(=O)c1cc(Nc2cc(C3CC3)[nH]n2)nc(N2CCN(Cc3ccc(S(=O)(=O)F)cc3)CC2)n1 | < 4.52 | < 4.52 | < 4.52 | < 4.52 | < 4.52 | 7.2 | < 4.52 | < 4.52 | 6.28 | 6.35 | 5.02 | 5 | < 4.52 | < 4.52 | 5.4 | < 4.52 | 6.64 | 6.58 | 5.28 | < 4.52 | 5.64 | 6.47 | 5.78 | 5.62 | < 4.52 | – | –
C#CCNC(=O)c1cc(Nc2cc(C)[nH]n2)nc(N2CCN(Cc3ccc(S(=O)(=O)F)cc3)CC2)n1 | < 4.52 | < 4.52 | < 4.52 | < 4.52 | < 4.52 | 6.3 | < 4.52 | < 4.52 | 5.52 | 5.14 | 4.89 | – | – | – | – | – | – | – | – | – | – | – | – | – | – | – | –
O=C(NCCNC(=O)c1cc(Nc2cc(C3CC3)[nH]n2)nc(N2CCN(Cc3ccc(S(=O)(=O)F)cc3)CC2)n1)OC1CC/C=C/CCC1 (stereo not drawn) | < 4.52 | < 4.52 | < 4.52 | 5.33 | < 4.52 | 5.56 | < 4.52 | < 4.52 | < 4.52 | – | < 4.52 | < 4.52 | < 4.52 | 5.08 | – | < 4.52 | 6.8 | 5.32 | < 4.52 | < 4.52 | < 4.52 | 6.12 | 4.7 | – | < 4.52 | 5.96 | 5.38
